From the NIST ThermoML archive (doi:10.1016/j.fluid.2010.02.021)
Numbers after ± are expanded uncertainties.

Test: xn = mol fraction of the nth substance listed
Conditions: 101.3 kPa, Liquid, Falling or rolling sphere viscometry

CCn1cc[n+](C)c1.O=S(=O)([N-]S(=O)(=O)C(F)(F)F)C(F)(F)F + O
viscosity [mPa·s]
Conditions | x2 = 0 | x2 = 0.1074 | x2 = 0.2228 | x2 = 0.3027
303.15 K | 28.6 ± 0.9 | 23.8 ± 0.7 | 19.4 ± 0.6 | 16.4 ± 0.5
323.15 K | 15.9 ± 0.5 | 13.6 ± 0.4 | 11.4 ± 0.4 | 9.9 ± 0.31
